The source of these data is patent US9611248B2, “Chemical compounds” (Syngenta Participations AG, priority 2013, dated 2017).

SMILES strings stand for the structures.

This test has as its system a variety of test species. As to the kind of experiment: Post-emergence herbicidal activity. The following applies: rate 1000 g/ha, evaluated after 13 days. Further details: key to ABUTH (Abutilon theophrasti) damage score / AMARE (Amaranthus retroflexus) damage score / ALOMY (Alopecurus myosuroides) damage score / ECHCG (Echinochloa crus-galli) damage score / ZEAMX (Zea mays) damage score / SOLNI (Solanum nigrum) damage score: 0 = no damage to plant, 5 = total damage to plant. The format is in vivo. The method in brief:
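Damage on a 0–5 scale (5 = plant killed) was rated 13 days after treatment. Test species had been sown in standard soil and raised 8 days under glasshouse conditions of 24/16 °C, 14 h light, 65% humidity. They were then sprayed with aqueous solution from an acetone/water 50:50 formulation containing 0.5% Tween 20.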
As to `CCN(CC)C(=O)c1cnc(N2C(=O)C(C)=C(OC)C2O)cc1C(F)(F)F` (stereo not drawn) [AD92], the “ABUTH (Abutilon theophrasti) damage score” value (shortened to “ABUTH”) is 5, the “ALOMY (Alopecurus myosuroides) damage score” value (“ALOMY” for short) amounted to 4, the “AMARE (Amaranthus retroflexus) damage score” value (“AMARE” for short) amounted to 4 and the “ECHCG (Echinochloa crus-galli) damage score” value (“ECHCG” for short) was 5. For the same molecule, the “SETFA (Setaria faberi) damage score” value amounted to 4 and the “ZEAMX (Zea mays) damage score” value is recorded as 3.

In the case of `COC1=C(C)C(=O)N(c2ncc(Cl)c(N(C)C)n2)C1O` (racemic) [DD3], the “ABUTH” value worked out at 3, the “ALOMY” value amounted to 2, the “AMARE” value is 4 and the “ECHCG” value stood at 2. Further, the “SETFA (Setaria faberi) damage score” value is 6 and the “ZEAMX (Zea mays) damage score” value was 1.

With `COC1=C(C)C(=O)N(c2cc(Cl)ncn2)C1O` (racemic) [CD2], the “ABUTH” value stood at 2, the “ALOMY” value was determined as 3, the “AMARE” value is recorded as 5 and the “ECHCG” value stood at 3. In addition, the “SETFA (Setaria faberi) damage score” value worked out at 4 and the “ZEAMX (Zea mays) damage score” value amounted to 1.

Take `COC1=C(C)C(=O)N(c2cc(C)c(S(=O)(=O)N3CCOCC3)cn2)C1O` (stereo not drawn) [AD91]: the “ABUTH” value is given as 0, the “ALOMY” value worked out at 0, the “AMARE” value came to 2 and the “ECHCG” value came out at 0. Moreover, the “SETFA (Setaria faberi) damage score” value stood at 0 and the “ZEAMX (Zea mays) damage score” value was determined as 2.

On to `CC1=C(Cl)C(O)N(c2cc(Cl)c(Cl)cn2)C1=O` (stereo not drawn) [AA16], for which the “ABUTH” value was 0, the “ALOMY” value was 1, the “AMARE” value turned out to be 0 and the “ECHCG” value worked out at 1. The “SETFA (Setaria faberi) damage score” value is 3 and the “ZEAMX (Zea mays) damage score” value was 1.

As for `C=CCOC1=C(C)C(=O)N(c2cc(C(F)(F)F)ccn2)C1O` (stereo not drawn) [AD42], the “ABUTH” value was found to be 5, the “ALOMY” value turned out to be 4, the “AMARE” value amounted to 5 and the “ECHCG” value was found to be 5. The “SETFA (Setaria faberi) damage score” value stood at 5 and the “ZEAMX (Zea mays) damage score” value turned out to be 2.

In the case of `COC1=C(C)C(=O)N(c2nccc(N(C)C)n2)C1O` (racemic) [DD2], the “ABUTH” value was 0, the “ALOMY” value was 0, the “AMARE” value is 1 and the “ECHCG” value came out at 1. In addition, the “SETFA (Setaria faberi) damage score” value is reported as 0 and the “ZEAMX (Zea mays) damage score” value was determined as 1.

In the case of `COC1=C(C)C(=O)N(c2cc(N(C)C)ncn2)C1O` (racemic) [CD7], the “ABUTH” value is 2, the “ALOMY” value is 0, the “AMARE” value came to 2 and the “ECHCG” value was determined as 0. In addition, the “SETFA (Setaria faberi) damage score” value was 0 and the “ZEAMX (Zea mays) damage score” value amounted to 0.

Regarding `COC1=C(C)C(=O)N(c2cc(C)c(Cl)nn2)C1O` (stereo not drawn) [BD11], the “ABUTH” value stood at 4, the “ALOMY” value is listed as 2, the “AMARE” value was 2 and the “ECHCG” value amounted to 1. The “SETFA (Setaria faberi) damage score” value came out at 2 and the “ZEAMX (Zea mays) damage score” value is 0.

In the case of `C#Cc1cnc(N2C(=O)C(C)=C(OC)C2O)cc1C(F)(F)F` (stereo not drawn) [AD20], the “ABUTH” value is 4, the “ALOMY” value is on record as 4, the “AMARE” value is 5 and the “ECHCG” value was 4. The “SETFA (Setaria faberi) damage score” value is 5 and the “ZEAMX (Zea mays) damage score” value came to 0.

Take `COC1=C(C)C(=O)N(c2cc(C)c(-c3cccc([N+](=O)[O-])c3)cn2)C1O` (stereo not drawn) [AD118]: the “ABUTH” value worked out at 5, the “ALOMY” value is 2, the “AMARE” value is given as 5 and the “ECHCG” value turned out to be 2. For the same molecule, the “SETFA (Setaria faberi) damage score” value is given as 4 and the “ZEAMX (Zea mays) damage score” value was found to be 0.

`COC1=C(C)C(=O)N(c2cc(C(F)(F)F)c(OCc3cccc(OC)c3)cn2)C1O` (stereo not drawn) [AD74]: the “ABUTH” value came out at 3, the “ALOMY” value was found to be 2, the “AMARE” value was 5 and the “ECHCG” value amounted to 2. The “SETFA (Setaria faberi) damage score” value worked out at 5 and the “ZEAMX (Zea mays) damage score” value is 1.

With `COC1=C(C)C(=O)N(c2cc(C(C)(C)CCl)c(Cl)nn2)C1O` (stereo not drawn) [BD4], the “ABUTH” value was 5, the “ALOMY” value worked out at 4, the “AMARE” value was 4 and the “ECHCG” value turned out to be 4. For the same molecule, the “SETFA (Setaria faberi) damage score” value amounted to 5 and the “ZEAMX (Zea mays) damage score” value amounted to 0.

As for `COC1=C(C)C(=O)N(c2cc(C(F)(F)F)c(C(=O)NC(C)(C)C)cn2)C1O` (stereo not drawn) [AD54], the “ABUTH” value was found to be 5, the “ALOMY” value was 5, the “AMARE” value is given as 5 and the “ECHCG” value is 5. The “SETFA (Setaria faberi) damage score” value was found to be 5 and the “ZEAMX (Zea mays) damage score” value was determined as 5.

`COC1=C(C)C(=O)N(c2cc(C(C)(C)C)c(-c3ccc(F)cc3)nn2)C1O` (stereo not drawn) [BD9]: the “ABUTH” value is listed as 2, the “ALOMY” value turned out to be 3, the “AMARE” value is reported as 5 and the “ECHCG” value was determined as 2. For the same molecule, the “SETFA (Setaria faberi) damage score” value was found to be 4 and the “ZEAMX (Zea mays) damage score” value is on record as 1.

Consider `COC1=C(C)C(=O)N(c2cc(C(F)(F)F)c(C)cn2)C1O` (stereo not drawn) [AD28], for which the “ABUTH” value is reported as 5, the “ALOMY” value is 4, the “AMARE” value is 5 and the “ECHCG” value came to 5. Further, the “SETFA (Setaria faberi) damage score” value was 5 and the “ZEAMX (Zea mays) damage score” value turned out to be 4.

Take `CC1=C(Cl)C(O)N(c2ccc(C)cn2)C1=O` (stereo not drawn) [AA36]: the “ALOMY” value is on record as 1, the “AMARE” value is given as 4, the “ECHCG” value is on record as 2 and the “SETFA (Setaria faberi) damage score” value turned out to be 1. Also, the “SOLNI (Solanum nigrum) damage score” value was 3 and the “ZEAMX (Zea mays) damage score” value was found to be 0.

As to `COC1=C(C)C(=O)N(c2cc(C)c(-c3ccc(F)cc3)cn2)C1O` (stereo not drawn) [AD60], the “ABUTH” value is recorded as 5, the “ALOMY” value is given as 2, the “AMARE” value came out at 5 and the “ECHCG” value is recorded as 1. For the same molecule, the “SETFA (Setaria faberi) damage score” value is listed as 4 and the “ZEAMX (Zea mays) damage score” value came out at 1.
